B3: estrogen receptor (ER), full-length (receptor)
chain: MTMTLHTKASGMALLHQIQGNELEPLNRPQLKIPLERPLGEVYLDSSKPAVYNYPEGAAYEFNAAAAANAQVYGQTGLPYGPGSEAAAFGSNGLGGFPPLNSVSPSPLMLLHPPPQLSPFLQPHGQQVPYYLENEPSGYTVREAGPPAFYRPNSDNRRQGGRERLASTNDKGSMAMESAKETRYCAVCNDYASGYHYGVWSCEGCKAFFKRSIQGHNDYMCPATNQCTIDKNRRKSCQACRLRKCYEVGMMKGGIRKDRRGGRMLKHKRQRDDGEGRGEVGSAGDMRAANLWPSPLMIKRSKKNSLALSLTADQMVSALLDAEPPILYSEYDPTRPFSEASMMGLLTNLADRELVHMINWAKRVPGFVDLTLHDQVHLLECAWLEILMIGLVWRSMEHPVKLLFAPNLLLDRNQGKCVEGMVEIFDMLLATSSRFRMMNLQGEEFVCLKSIILLNSGVYTFLSSTLKSLEEKDHIHRVLDKITDTLIHLMAKAGLTLQQQHQRLAQLLLILSHIRHMSNKGMEHLYSMKCKNVVPLYDLLLEMLDAHRLHAPTSRGGASVEETDQSHLATAGSTSSHSLQKYYITGEAEGFPATV
notes: 35S-labeled when in vitro translated for the pull-downs; endogenous in MCF7 cells for the co-immunoprecipitation; also called ERα; pSG5-ER

Experiments:
PR = assay: Endogenous PR expression in T47D cells (Northern / Western); format: cell-based, human; settings: T47D cells; 10 nM E2, 24 h
Description: The method was used as previously described, Lee & Chang. (1996) J. Biol. Chem. 271. 10405-10412, with some modifications. Briefly. 5 μg of pCMV-TR2 was transiently transfected into T47D cells and lysed in RIPA buffer (10 mM sodium phosphate, pH 7.0. 150 mM NaCL, 2 mM EDT A. 1% (w/v) Nonidet P-40, 0.1% (w/v) SDS. 1% (w/v) sodium deoxycholate) with freshly adding proteinase inhibitors. The soluble protein was quantified using the Bio-Rad Protein Assay reagent (Bio-Rad Laboratories) and 50 μg soluble proteins were loaded onto SDS/10% PAGE and then transferred to Immobion-P transfer membrane (Millipore). After the blocking reaction overnight, the membrane was incubated with […] anti-PR polyclonal antibody (H-190. Santa Cruz) in PBS(−) containing 0.1% Skim milk for 2 h at room temperature. The membrane was washed and then incubated in 15 μCi 125I] of protein-A (DuPont NEN)/30 ml of PBS(−) containing 0.1% Skim milk for 1 h at room temperature. The western blots were autoradiographed and quantitated by using Phosphorlmager.
RNA isolation and Northern blot analysis were performed as previously described. Young, et al., J. Biol. Chem. 273,20877-20885 (1998).
Next it was determined if TR2 could repress the ER endogenous target gene expression. PR was chosen because it is well studied as an E2-ER target gene in T47D cells. Misrahi et al., Biochem. Biophys. Res. Commun. 143, 740-748 (1987). […] Cells were then used for RNA isolation (Northern blot analysis) and lysate protein extraction (Western blot analysis). For RNA analysis, total RNAs were isolated, and Northern blots were performed using [32P] labeled PR cDNA probes. The membrane was autoradiographed. For Protein Western blot analysis, cells lysates were prepared and PR proteins were visualized by radioimmunoblot. The membrane was autoradiographed to Phosphorimager and was quantitated by ImageQuant software.

MCF7-TR2 cells = assay: Cell cycle profile by flow cytometry, MCF7-TR2 cells; format: cell-based; settings: 3 days, E2, or E2 with doxycycline-induced TR2
Description: (A) Growth assays were performed by MTT method as instructed by manufacturer (Sigma). 5×10^3 MCF7-pBIG and MCF7-TR2 cells were seeded in 24-well plates and incubated in RPMI with 10% CD-FCS for 48 h. […] After 3- and 5-day treatment, cells were harvested for MTT assay. Data represents the relative folds of MTT O.D.570 values at day 5 divided by that at day 3. […] Cells were then trypsinized and fixed overnight in 70% Ethanol. After cells were incubated with 1 mg/ml RNase A (Sigma) and propidium iodide (Roche Molecular Biochemicals), the DNA contents of cells were measured by a flow cytometry. (C) Percentage of growth suppression by TR2. MCF7-TR2 cells were seeded at 5×10^3 cells per well in 24-well plates. […] The treatments were changed every two days. The indices of cell growth were determined by MTT assay. The MTT values from cells without doxycycline were set as 100% in each kind of treatment. Values are represented by the percentage of growth suppression from cells with doxycycline to that without doxycycline.

cyclin D1 = assay: Western blot of cyclin D1 in MCF-7-TR4 cells; format: cell-based; settings: 10 nM E2, Dox
Description: MCF-7-TR4 or MCF-7-pBIG cells were cultured in DMEM containing 10% charcoal dextran-treated FBS for 3 days and then 1×10^6 cells were seeded on 100-mm dishes. […] The lysate protein amount was quantitated by Bradford assay (Bio-Rad, Hercules, Calif.) with bovine serum albumin as a reference standard. One hundred μg protein was loaded and after electrophoresis on 10% SDS-PAGE was transferred onto Immobulin (Milipore, Bedford, Mass.). The membrane was blotted with anti-cyclin D1 rabbit polyclonal Ab (H-295) (Santa Cruz). Alkaline phosphatase conjugated secondary Ab was used.

MCF-7-TR4 cells = assay: MCF-7 cells growth assay (cell counting); format: cell-based; settings: MCF-7-TR4 cells (E2 also in MCF-7-pBIG); 10 nM E2; Dox
Description: MCF-7-TR4 and MCF-7-pBIG cells, which were deprived of estrogen by culturing in phenol-free DMEM medium supplement with 10% charcol-stripped FBS for 4 days, were plated at 10^4 cells/well into 24-well plate. […] Cells were trypsinized at the specified time points and counted with a hemocytometer to determine cell density per sample.

[1] = molecular target: T1, interaction between AR and TR4 (Homo sapiens, UniProt P10275, DEL79-80/DUP473-473); assay: Modified mammalian one-hybrid system pSG5AR / GAL4-TR4E; format: cell-based; settings: 1 μM of anti androgen
T1 construct: A full-length AR(pSG5AR) was co-transfected with GAL4-TR4E; expressed in transfected cells; host or cells: H1299
Description: A full-length AR(pSG5AR) was co-transfected with GAL4-TR4E and PG5-Luc reporter in H1299 cells (pSG5AR, pSG5GR, pSG5PR, disclosed in Yeh et al., Proc Natl. Acad. Sci., 93:5517-5521 (1996), which is herein incorporated by reference at least for material related to plasmids and assays, including sequence).
Transfection was performed by a modified calcium phosphate precipitation method. The pRL-TK plasmid was co-transfected for normalization of transfection efficiency.

[2] = molecular target: B3; assay: GST pull-down, GST-TR2 fragment on beads, [35S]-ER
GST-TR4 fusion protein = molecular target: T2, GST-TR4 fusion protein (human, UniProt P49116 1-596); assay: GST pull-down, GST-TR4 on beads, 35S-labeled RXRα
T2 construct: also called pGEX-3X-TR4
T2 sequence: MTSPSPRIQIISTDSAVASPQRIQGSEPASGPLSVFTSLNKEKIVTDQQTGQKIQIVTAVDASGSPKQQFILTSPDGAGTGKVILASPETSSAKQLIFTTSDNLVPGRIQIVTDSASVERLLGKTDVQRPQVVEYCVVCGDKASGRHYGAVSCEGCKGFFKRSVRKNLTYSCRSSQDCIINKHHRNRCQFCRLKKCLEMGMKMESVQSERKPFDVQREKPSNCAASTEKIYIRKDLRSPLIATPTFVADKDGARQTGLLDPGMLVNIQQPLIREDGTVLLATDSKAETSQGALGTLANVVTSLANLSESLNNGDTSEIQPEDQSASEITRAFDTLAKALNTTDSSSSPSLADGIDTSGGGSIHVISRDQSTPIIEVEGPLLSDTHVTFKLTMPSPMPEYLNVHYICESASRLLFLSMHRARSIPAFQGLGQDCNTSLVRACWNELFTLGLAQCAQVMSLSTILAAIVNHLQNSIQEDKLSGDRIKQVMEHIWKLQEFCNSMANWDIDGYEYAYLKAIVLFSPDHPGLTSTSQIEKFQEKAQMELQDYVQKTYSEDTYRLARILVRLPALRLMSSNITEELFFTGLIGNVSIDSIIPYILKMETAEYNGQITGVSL

[3] = molecular target: T3, TR4 orphan receptor (TR4), full-length (human, UniProt P49116 1-596); assay: Table 4, summary of interactions tested; assay not given
T3 construct: Full-length TR4; 35S-labeled when in vitro translated, expressed from plasmids in the cell assays; also called pCMX-TR4; pCMV-TR4
T3 sequence: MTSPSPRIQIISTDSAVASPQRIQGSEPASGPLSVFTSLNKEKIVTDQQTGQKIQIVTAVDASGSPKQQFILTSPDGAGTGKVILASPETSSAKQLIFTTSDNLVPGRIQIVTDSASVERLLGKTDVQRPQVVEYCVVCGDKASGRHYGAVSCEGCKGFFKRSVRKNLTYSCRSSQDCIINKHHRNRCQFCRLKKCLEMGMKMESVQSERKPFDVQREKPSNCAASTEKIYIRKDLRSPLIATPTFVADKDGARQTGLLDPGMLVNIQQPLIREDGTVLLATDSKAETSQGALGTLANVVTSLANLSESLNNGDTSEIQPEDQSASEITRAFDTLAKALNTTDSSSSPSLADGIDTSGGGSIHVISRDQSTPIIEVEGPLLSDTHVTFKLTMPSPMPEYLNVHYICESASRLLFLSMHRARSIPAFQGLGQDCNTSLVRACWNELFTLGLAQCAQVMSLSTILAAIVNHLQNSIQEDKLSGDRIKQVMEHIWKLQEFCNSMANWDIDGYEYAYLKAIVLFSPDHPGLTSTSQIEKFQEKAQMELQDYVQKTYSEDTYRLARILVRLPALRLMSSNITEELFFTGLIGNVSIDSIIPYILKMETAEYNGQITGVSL

[4] = molecular target: T4, TR4 LBD (row label of Table 4) (human, UniProt P49116 205-596); assay: as above
T4 construct: not shown: Fusion partner: GST in the pull-down with ER, GAL4-DBD in the hybrid assays with AR
T4 sequence: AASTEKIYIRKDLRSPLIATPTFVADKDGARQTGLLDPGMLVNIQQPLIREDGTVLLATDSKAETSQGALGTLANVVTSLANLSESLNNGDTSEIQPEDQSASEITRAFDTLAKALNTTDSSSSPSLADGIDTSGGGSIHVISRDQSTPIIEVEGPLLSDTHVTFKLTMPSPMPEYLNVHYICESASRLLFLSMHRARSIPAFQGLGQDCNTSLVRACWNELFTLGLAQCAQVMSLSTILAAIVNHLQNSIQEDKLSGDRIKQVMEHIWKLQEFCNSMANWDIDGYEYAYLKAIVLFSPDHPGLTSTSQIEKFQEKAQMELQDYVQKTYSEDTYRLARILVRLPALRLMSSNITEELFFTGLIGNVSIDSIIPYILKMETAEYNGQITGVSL

T1 sequence (P10275 with tags, fused parts or gaps DEL79-80/DUP473-473): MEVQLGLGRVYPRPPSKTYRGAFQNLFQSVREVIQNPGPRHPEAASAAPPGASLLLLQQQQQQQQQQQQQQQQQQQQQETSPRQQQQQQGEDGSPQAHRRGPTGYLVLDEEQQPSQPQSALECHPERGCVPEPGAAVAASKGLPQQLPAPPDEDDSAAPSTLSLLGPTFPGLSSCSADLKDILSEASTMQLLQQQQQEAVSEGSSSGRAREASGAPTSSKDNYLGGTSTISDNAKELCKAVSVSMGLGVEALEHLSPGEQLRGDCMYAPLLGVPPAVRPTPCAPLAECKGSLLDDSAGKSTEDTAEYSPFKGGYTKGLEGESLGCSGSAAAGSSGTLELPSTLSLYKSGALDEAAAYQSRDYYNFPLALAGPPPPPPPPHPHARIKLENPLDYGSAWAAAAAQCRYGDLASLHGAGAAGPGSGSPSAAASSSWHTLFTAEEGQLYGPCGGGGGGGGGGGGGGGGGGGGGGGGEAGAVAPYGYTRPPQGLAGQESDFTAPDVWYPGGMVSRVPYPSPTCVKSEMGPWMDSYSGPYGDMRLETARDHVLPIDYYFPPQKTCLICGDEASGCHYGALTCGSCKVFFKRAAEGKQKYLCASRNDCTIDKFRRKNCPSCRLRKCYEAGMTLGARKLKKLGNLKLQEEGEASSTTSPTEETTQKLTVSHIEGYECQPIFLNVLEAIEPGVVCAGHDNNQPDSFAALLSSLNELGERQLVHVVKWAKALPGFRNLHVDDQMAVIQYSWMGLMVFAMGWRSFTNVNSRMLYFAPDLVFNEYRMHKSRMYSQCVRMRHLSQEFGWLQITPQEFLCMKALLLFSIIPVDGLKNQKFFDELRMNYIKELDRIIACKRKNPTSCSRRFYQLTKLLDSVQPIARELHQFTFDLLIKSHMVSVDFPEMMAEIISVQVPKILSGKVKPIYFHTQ

Molecule: C[C@]12CC[C@@H]3c4ccc(O)cc4CC[C@H]3[C@@H]1CC[C@@H]2O [E2, 17β-estradiol, reference compound]
- Induction of PR mRNA expression (PR): about 3 fold
- Cells in G1 (MCF7-TR2 cells): 37.4%
- Cells in S (MCF7-TR2 cells): 23.6%
- Cyclin D1 expression (cyclin D1): induced cyclin D1 expression
- Cell growth (cell number) (MCF-7-TR4 cells): stimulated cell growth

Molecule: CC1(C)C(=O)N(c2ccc(C#N)c(C(F)(F)F)c2)C(=O)N1CCCCO [RU58841]
- Effect on DHT-enhanced interaction between AR and TR4 [1]: abolish

Molecule: CC(C)(O)C(=O)Nc1ccc([N+](=O)[O-])c(C(F)(F)F)c1 [hydroxyflutamide]
- Effect on DHT-enhanced interaction between AR and TR4 [1]: abolish

B1: GST-TR2-#1 (N-terminus, aa 1-112 of TR2) (other)
chain: MATIEEIAHQIIEQQMGEIVTEQQTGQKIQIVTALDHNTQGKQFILTNHDGSTPSKVILARQDSTPGKVFLTTPDAAGVNQLFFTTPDLSAQHLQLLTDNSPDQGPNKVFDL
notes: also called pGEX-KG-TR2-#1; not shown: GST carrier of pGEX-KG and its linker
- binding result [2]: no binding

B2: retinoid X receptor alpha (RXRα) (receptor, UniProt P19793 1-462, looked up)
chain: MDTKHFLPLDFSTQVNSSLTSPTGRGSMAAPSLHPSLGPGIGSPGQLHSPISTLSSPINGMGPPFSVISSPMGPHSMSVPTTPTLGFSTGSPQLSSPMNPVSSSEDIKPPLGLNGVLKVPAHPSGNMASFTKHICAICGDRSSGKHYGVYSCEGCKGFFKRTVRKDLTYTCRDNKDCLIDKRQRNRCQYCRYQKCLAMGMKREAVQEERQRGKDRNENEVESTSSANEDMPVERILEAELAVEPKTETYVEANMGLNPSSPNDPVTNICQAADKQLFTLVEWAKRIPHFSELPLDDQVILLRAGWNELLIASFSHRSIAVKDGILLATGLHVHRNSAHSAGVGAIFDRVLTELVSKMRDMQMDKTELGCLRAIVLFNPDSKGLSNPAEVEALREKVYASLEAYCKHKYPEQPGRFAKLLLRLPALRSIGLKCLEHLFFFKLIGDTPIDTFLMEMLEAPHQMT
notes: 35S-methionine-labeled, in vitro translated; also called RXRa; RXRA
- binding result (GST-TR4 fusion protein): no binding

Molecule: B3
- binding result [3]: binds

B4: ER LBD 282-595 (column label of Table 4) (receptor, not shown: large carriers)
chain: SAGDMRAANLWPSPLMIKRSKKNSLALSLTADQMVSALLDAEPPILYSEYDPTRPFSEASMMGLLTNLADRELVHMINWAKRVPGFVDLTLHDQVHLLECAWLEILMIGLVWRSMEHPVKLLFAPNLLLDRNQGKCVEGMVEIFDMLLATSSRFRMMNLQGEEFVCLKSIILLNSGVYTFLSSTLKSLEEKDHIHRVLDKITDTLIHLMAKAGLTLQQQHQRLAQLLLILSHIRHMSNKGMEHLYSMKCKNVVPLYDLLLEMLDAHRLHAPTSRGGASVEETDQSHLATAGSTSSHSLQKYYITGEAEGFPATV
- binding result [4]: binds
- binding result [3]: binds

From patent publication US20030235860A1, “Interactions between AR, ER, TR2, and TR4” (priority 1999, published 2003)
